These are literature values, as cited in patent US7365077B2, “Piperazine bis-amide derivatives and their use as antagonists of the orexin receptor” (SmithKline Beecham p.l.c., priority 2001, dated 2008).

No end group written: not given here.

For one data set, the system named is freely-feeding rats. Particulars: central administration, 4 hour time period.
The next data set relates to orexin receptors. To be noted: central administration at the onset of the normal sleep period, rat.

In the case of “orexin-A: Peptide ligand (agonist) of the orexin receptors; human sequence given in b87 (QPLPDCCRQKTCSCRLYELLHGAGNHAAGILTL; ends and bridges not checked; cysteine pairing not given here; UniProt O43612 34-66, looked up)”, in the data set on freely-feeding rats, the “increase in food intake over control rats receiving vehicle” value is reported as “approximately four-fold”. Also, the effect on arousal entry with orexin receptors is listed as “dose-related increase in arousal”.
